In the supplement of paper PMC10331698:
± gives the standard deviation of the averaged measurements.

Columns and labels:
Experiment in all cases: level (log10 ratio to DMSO vehicle control); higher = higher biomarker level / cell amount than vehicle control
[1] = compound: O=S(=O)(Cl)C(F)(F)C(F)(F)C(F)(F)C(F)(F)C(F)(F)C(F)(F)C(F)(F)C(F)(F)F [Perfluoro-1-octanesulfonyl chloride]; conditions: in DMSO
Procedure: (§1)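 BioMAP Diversity Plus panel of 12 human primary cell co-culture systems (3C, 4H, LPS, SAg, BT, BF4T, BE3C, CASM3C, HDF3CGF, KF3CT, MyoF, Mphg). Compounds were added 1 h before stimulation and left for 24 h (MyoF 48 h; BT 72 h for soluble read-outs or 6 d for IgG). Biomarkers were read by ELISA, cytotoxicity by SRB, PBMC viability and proliferation by Alamar Blue. Each well value was divided by the mean of 8 DMSO control wells on the same plate and log10 transformed; duplicate blinded samples were tested at 4 concentrations.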

[2] = compound: O=C(O)C(F)(F)C(F)(F)C(F)(F)C(F)(F)C(F)(F)C(F)(F)C(F)(F)C(F)(F)C(F)(F)C(F)F [11-H-Perfluoroundecanoic acid]; conditions: in DMSO
Procedure: as §1

[3] = compound: O=C(O)C=CC(F)(C(F)(F)F)C(F)(F)F [3-(Perfluoroisopropyl)-2-propenoic acid]; conditions: in DMSO
Procedure: as §1

[4] = compound: FC(F)(F)C(F)(F)C(F)(F)CC1CO1 [1H,1H-Heptafluorobutyl epoxide]; conditions: in DMSO
Procedure: as §1

[5] = compound: O=S(=O)(F)C(F)(F)C(F)(F)C(F)(F)C(F)(F)C(F)(F)C(F)(F)C(F)(F)C(F)(F)F [Perfluorooctanesulfonyl fluoride]; conditions: in DMSO
Procedure: as §1

[6] = compound: FC(F)(F)C(F)(F)C(F)(F)C(F)(F)C(F)(F)C(F)(F)C(F)(F)I [1-Iodopentadecafluoroheptane]; conditions: in DMSO
Procedure: as §1

[7] = compound: NC(=O)C(F)(F)C(F)(F)C(F)(F)C(F)F; conditions: in DMSO
Procedure: as §1

[8] = compound: FC(F)(F)C(F)(F)C(F)(F)C(F)(F)C(F)(F)C(F)(F)CC1CO1 [3-(Perfluorohexyl)-1,2-epoxypropane]; conditions: in DMSO
Procedure: as §1

[9] = compound: COC(=O)C(F)(F)C(F)(F)OC(F)(C(F)(F)F)C(F)(F)OC(F)=C(F)F [Methyl perfluoro(3-(1-ethenyloxypropan-2-yloxy)propanoate)]; conditions: in DMSO
Procedure: as §1

[10] = compound: NC(=O)C(F)(F)C(F)(F)C(F)(F)C(F)(F)C(N)=O [Octafluoroadipamide]; conditions: in DMSO
Procedure: as §1

[11] = compound: C=CC(=O)OCC(F)(F)C(F)(F)C(F)(F)COC(=O)C=C [1H,1H,5H,5H-Perfluoro-1,5-pentanediol diacrylate]; conditions: 6700 nM; in DMSO
Procedure: as §1

[12] = compound: FC(F)(F)C(F)(F)CNCC(F)(F)C(F)(F)F [Bis(1H,1H-perfluoropropyl)amine]; conditions: in DMSO
Procedure: as §1

[13] = compound: NS(=O)(=O)C(F)(F)C(F)(F)C(F)(F)C(F)(F)C(F)(F)C(F)(F)F [Perfluorohexanesulfonamide]; conditions: in DMSO
Procedure: as §1

[14] = compound: FC(F)(F)C(F)(F)C(F)(F)CI [Heptafluorobutyl iodide]; conditions: in DMSO
Procedure: as §1

[15] = compound: O=S(=O)(O)C(F)(F)C(F)(F)C(F)(F)C(F)(F)C(F)(F)C(F)(F)C(F)(F)C(F)(F)C(F)(F)C(F)(F)F [Sodium perfluorodecanesulfonate]; conditions: in DMSO
Procedure: as §1

[16] = compound: C=C(C)C(=O)OCCC(F)(F)C(F)(F)C(F)(F)C(F)(F)C(F)(F)C(F)(F)F [6:2 Fluorotelomer methacrylate]; conditions: in DMSO
Procedure: as §1

[17] = compound: O=S(=O)(O)CCC(F)(F)C(F)(F)C(F)(F)C(F)(F)C(F)(F)C(F)(F)F [6:2 Fluorotelomer sulfonic acid]; conditions: in DMSO
Procedure: as §1

[18] = compound: NC(=O)C(F)(F)C(F)(F)C(F)(F)C(F)(F)F [Nonafluoropentanamide]; conditions: in DMSO
Procedure: as §1

[19] = compound: OCC(F)(F)C(F)(F)C(F)(F)CO [Hexafluoroamylene glycol]; conditions: in DMSO
Procedure: as §1

## KF3CT:MMP-9
[1]; 6700 nM
  level (log10): -0.0225 ± 0.028
[1]; 20000 nM
  level (log10): -0.0155 ± 0.013
[1]; 60000 nM
  level (log10): -0.193 ± 0.026
[2]; 6700 nM
  level (log10): -0.0735 ± 0.011
[2]; 20000 nM
  level (log10): -0.298 ± 0.0071
[3]; 6700 nM
  level (log10): -0.0175 ± 0.016
[3]; 20000 nM
  level (log10): 0.006 ± 0.0071
[3]; 60000 nM
  level (log10): 0.018 ± 0.014
[4]; 6700 nM
  level (log10): -0.0085 ± 0.028
[4]; 20000 nM
  level (log10): -0.012 ± 0.0099
[4]; 60000 nM
  level (log10): -0.0205 ± 0.013
[5]; 6700 nM
  level (log10): -0.012 ± 0.035
[5]; 20000 nM
  level (log10): -0.0185 ± 0.032
[5]; 60000 nM
  level (log10): -0.0075 ± 0.035
[6]; 6700 nM
  level (log10): -0.05 ± 0.11
[6]; 20000 nM
  level (log10): -0.0495 ± 0.056
[7]; 6700 nM
  level (log10): -0.0095 ± 0.013
[7]; 20000 nM
  level (log10): 0.002 ± 0.025
[7]; 60000 nM
  level (log10): 0.0125 ± 0.023
[8]; 6700 nM
  level (log10): -0.014 ± 0.0042
[8]; 20000 nM
  level (log10): -0.0225 ± 0.00071
[8]; 60000 nM
  level (log10): -0.0155 ± 0.025
[9]; 6700 nM
  level (log10): -0.0375 ± 0.0021
[9]; 20000 nM
  level (log10): -0.054 ± 0.0071
[10]; 6700 nM
  level (log10): -0.0325 ± 0.016
[10]; 20000 nM
  level (log10): -0.023 ± 0.0014
[10]; 60000 nM
  level (log10): -0.0115 ± 0.03
[11]
  level (log10): -0.0525 ± 0.043
[12]; 6700 nM
  level (log10): -0.024 ± 0.0071
[12]; 20000 nM
  level (log10): -0.013 ± 0.035
[12]; 60000 nM
  level (log10): 0.001 ± 0.042
[13]; 6700 nM
  level (log10): -0.015 ± 0.02
[13]; 20000 nM
  level (log10): -0.039 ± 0.03
[13]; 60000 nM
  level (log10): -0.093 ± 0.021
[14]; 6700 nM
  level (log10): -0.0195 ± 0.035
[14]; 20000 nM
  level (log10): -0.0185 ± 0.033
[14]; 60000 nM
  level (log10): -0.005 ± 0.021
[15]; 1500 nM
  level (log10): -0.01 ± 0.0085
[15]; 4400 nM
  level (log10): -0.0325 ± 0.0078
[15]; 13000 nM
  level (log10): -0.0735 ± 0.012
[15]; 40000 nM
  level (log10): -0.139 ± 0.036
[16]; 6700 nM
  level (log10): -0.0275 ± 0.056
[16]; 20000 nM
  level (log10): -0.0145 ± 0.03
[16]; 60000 nM
  level (log10): -0.009 ± 0.0042
[17]; 6700 nM
  level (log10): -0.0285 ± 0.019
[17]; 20000 nM
  level (log10): 0.0085 ± 0.018
[17]; 60000 nM
  level (log10): 0.026 ± 0.0028
[18]; 6700 nM
  level (log10): -0.039 ± 0.027
[18]; 20000 nM
  level (log10): -0.0195 ± 0.0021
[18]; 60000 nM
  level (log10): -0.0245 ± 0.011
[19]; 6700 nM
  level (log10): -0.0145 ± 0.005
[19]; 20000 nM
  level (log10): -0.011 ± 0.025
[19]; 60000 nM
  level (log10): -0.0155 ± 0.0035

## LPS:sPGE2
[1]; 6700 nM
  level (log10): 0.0585 ± 0.0078
[1]; 20000 nM
  level (log10): -0.02 ± 0.016
[1]; 60000 nM
  level (log10): -0.272 ± 0.03
[2]; 6700 nM
  level (log10): 0.018 ± 0.023
[2]; 20000 nM
  level (log10): -0.006 ± 0.042
[3]; 6700 nM
  level (log10): 0.01 ± 0.065
[3]; 20000 nM
  level (log10): 0.046 ± 0.023
[3]; 60000 nM
  level (log10): 0.0575 ± 0.025
[4]; 6700 nM
  level (log10): 0.007 ± 0.03
[4]; 20000 nM
  level (log10): 0.005 ± 0.05
[4]; 60000 nM
  level (log10): 0.0105 ± 0.00071
[5]; 6700 nM
  level (log10): 0.0045 ± 0.039
[5]; 20000 nM
  level (log10): -0.0015 ± 0.005
[5]; 60000 nM
  level (log10): -0.0265 ± 0.056
[6]; 6700 nM
  level (log10): -0.062 ± 0.013
[6]; 20000 nM
  level (log10): -0.103 ± 0.027
[7]; 6700 nM
  level (log10): -0.0045 ± 0.028
[7]; 20000 nM
  level (log10): -0.0005 ± 0.005
[7]; 60000 nM
  level (log10): 0.0315 ± 0.036
[8]; 6700 nM
  level (log10): 0.022 ± 0.0057
[8]; 20000 nM
  level (log10): -0.0655 ± 0.0035
[8]; 60000 nM
  level (log10): -0.047 ± 0.0099
[9]; 6700 nM
  level (log10): -0.015 ± 0.021
[9]; 20000 nM
  level (log10): 0.0015 ± 0.029
[10]; 6700 nM
  level (log10): 0.083 ± 0.037
[10]; 20000 nM
  level (log10): -0.04 ± 0.018
[10]; 60000 nM
  level (log10): -0.0165 ± 0.026
[11]
  level (log10): -0.105 ± 0.028
[12]; 6700 nM
  level (log10): 0.038 ± 0.033
[12]; 20000 nM
  level (log10): 0.005 ± 0.0014
[12]; 60000 nM
  level (log10): 0.0485 ± 0.067
[13]; 6700 nM
  level (log10): 0.088 ± 0.014
[13]; 20000 nM
  level (log10): 0.13 ± 0.032
[13]; 60000 nM
  level (log10): 0.207 ± 0.046
[14]; 6700 nM
  level (log10): -0.0175 ± 0.026
[14]; 20000 nM
  level (log10): 0.0095 ± 0.064
[14]; 60000 nM
  level (log10): 0.0105 ± 0.064
[15]; 1500 nM
  level (log10): 0.035 ± 0.02
[15]; 4400 nM
  level (log10): 0.006 ± 0.041
[15]; 13000 nM
  level (log10): -0.009 ± 0.04
[15]; 40000 nM
  level (log10): -0.123 ± 0.023
[16]; 6700 nM
  level (log10): 0.0125 ± 0.0078
[16]; 20000 nM
  level (log10): 0.027 ± 0.0099
[16]; 60000 nM
  level (log10): 0.0025 ± 0.046
[17]; 6700 nM
  level (log10): -0.008 ± 0.023
[17]; 20000 nM
  level (log10): -0.0215 ± 0.047
[17]; 60000 nM
  level (log10): -0.0345 ± 0.029
[18]; 6700 nM
  level (log10): -0.0015 ± 0.013
[18]; 20000 nM
  level (log10): -0.0115 ± 0.016
[18]; 60000 nM
  level (log10): -0.022 ± 0.0099
[19]; 6700 nM
  level (log10): -0.0265 ± 0.022
[19]; 20000 nM
  level (log10): -0.0255 ± 0.071
[19]; 60000 nM
  level (log10): -0.0325 ± 0.054
